Results as given in patent US20250136570A1 (Tango Therapeutics, Inc., priority 2021, published 2025).
pIC50: −log10 of the molar value.

Columns and labels:
HDAC3/NCor2 = HDAC3/NCor2 (Homo sapiens (Human), UniProt O15379); test: HDAC3 inhibition, Fluor de Lys fluorescent enzyme assay; assay type: biochemical; settings: 3 hours pre-incubation at room temp; 1.2 nM enzyme; 16 μM Fluor de Lys substrate; duplicate
Description: (§1) Recombinant HDAC1 (cat #: 50051) and HDAC3/NCor2 (cat #: 50003) enzymes were purchased from BPS Bioscience (San Diego, CA, US). Assay reagents for the detection of HDAC enzyme activity (Fluor de Lys®—Green substrate and Developer kits) were purchased from Enzo Life Science (Farmingdale, NY, US). Plates used to conduct the enzyme reaction were Proxiplate-384 (cat #: 6008280) Plus from PerkinElmer (Waltham, MA, US). TSA, an HDAC inhibitor, was purchased from Enzo Life Science (cat #BML-GR309-9090) The remainder of the reagents used to prepare the assay buffer were purchased from Sigma-Aldrich (St Louis, MO, US). Unless stated otherwise, HDAC1 and 3 assays were conducted in 50 mM Tris buffer, pH 8, 137 mM NaCl, 2.7 mM KCl, 0.01% BSA.
(§2) IC50 determination for HDAC1 and HDAC3—Prior to adding reagents, 50 nL/well of compound were added to Proxiplates using an Echo dispenser instrument (Beckman Coulter, CA, US). After addition of compound, 2.5 μL/well of 2× enzyme solution was added and the enzyme was pre-incubated with compound for 3 hours at room temp. (˜22° C.). After the pre-incubation period, the enzyme reaction was initiated by adding 2.5 μL/well of 2× Fluor de Lys® substrate solution. The assay reaction was stopped after one hour by adding 5 μl/well of a 0.66× Developer solution containing TSA (3.2 μM). The final product of the enzyme reaction was read using a Spectramax plate reader instrument (Molecular Devices, CA, US) using a fluorescent readout (Ex 360 nm/Em 460 nm). The final enzyme concentrations in the assay buffer for HDAC1 and 3 were 6 and 1.2 nM, respectively. The final Fluor de Lys® substrate concentration in the assay buffer was 16 μM for all HDAC enzymes. IC50 values were determined using the following equation: […]
(§3) Where Efree and Eo are the free and total amount of HDAC enzyme in the reaction mixture, n is the hill coefficient, I is the free inhibitor concentration, and IC50 is the measure of the potency equivalent to the inhibitor concentration that leads to a 50% occupancy of the total enzyme. Each data was generated in duplicate.

Recombinant HDAC1 = Recombinant HDAC1 (Homo sapiens (Human), UniProt Q13547); test: HDAC1 inhibition, Fluor de Lys fluorescent enzyme assay; assay type: biochemical; settings: 3 hours pre-incubation at room temp; 6 nM enzyme; 16 μM Fluor de Lys substrate; duplicate
Sequence of Recombinant HDAC1 (Q13547 whole entry): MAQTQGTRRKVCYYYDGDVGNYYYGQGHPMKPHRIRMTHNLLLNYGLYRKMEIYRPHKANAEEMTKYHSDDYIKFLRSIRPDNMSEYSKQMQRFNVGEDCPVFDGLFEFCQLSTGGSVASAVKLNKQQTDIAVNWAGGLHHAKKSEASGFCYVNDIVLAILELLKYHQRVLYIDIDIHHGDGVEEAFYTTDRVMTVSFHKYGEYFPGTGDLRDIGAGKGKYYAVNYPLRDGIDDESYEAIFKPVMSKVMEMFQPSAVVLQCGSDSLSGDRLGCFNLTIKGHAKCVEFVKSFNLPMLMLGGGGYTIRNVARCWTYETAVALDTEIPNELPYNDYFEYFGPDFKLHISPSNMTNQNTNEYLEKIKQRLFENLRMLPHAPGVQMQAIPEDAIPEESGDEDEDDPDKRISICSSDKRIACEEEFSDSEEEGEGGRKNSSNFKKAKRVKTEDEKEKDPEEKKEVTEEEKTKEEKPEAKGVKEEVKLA
Description: as §1, §2, §3

Sequence of HDAC3/NCor2 (O15379 whole entry): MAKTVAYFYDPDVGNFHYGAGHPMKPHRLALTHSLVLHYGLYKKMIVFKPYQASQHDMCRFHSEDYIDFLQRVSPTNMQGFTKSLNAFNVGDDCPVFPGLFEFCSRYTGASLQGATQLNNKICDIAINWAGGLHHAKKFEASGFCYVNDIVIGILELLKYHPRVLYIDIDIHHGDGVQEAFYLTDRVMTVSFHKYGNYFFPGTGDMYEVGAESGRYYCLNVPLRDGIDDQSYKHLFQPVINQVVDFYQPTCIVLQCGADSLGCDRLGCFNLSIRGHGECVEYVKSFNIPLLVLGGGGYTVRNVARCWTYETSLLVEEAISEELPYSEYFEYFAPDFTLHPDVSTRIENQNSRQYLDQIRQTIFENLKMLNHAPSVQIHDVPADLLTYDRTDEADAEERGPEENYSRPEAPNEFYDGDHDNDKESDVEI
Sequence of HDAC3/NCor2 (Q9Y618 395-489 partner): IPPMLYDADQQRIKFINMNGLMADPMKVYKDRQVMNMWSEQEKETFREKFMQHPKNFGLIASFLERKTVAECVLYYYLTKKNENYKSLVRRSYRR

SMILES | pIC50 (HDAC3/NCor2) | pIC50 (Recombinant HDAC1)
Cc1csc(-c2ccc(N)c(NC(=O)c3ccc(S(C)(=N)=O)cc3)c2)c1 (stereo not shown) [Compound 135, N-[2-amino-5-(4-methyl-2-thienyl)phenyl]-4-(methylsulfonimidoyl)benzamide] | < 5.70 | > 7.00
Cc1ccc(-c2ccc(N)c(NC(=O)c3ccc(S(C)(=N)=O)cc3)c2)cc1 (stereo not shown) [Compound 136, N-[2-amino-5-(p-tolyl)phenyl]-4-(methylsulfonimidoyl)benzamide] | < 5.70 | > 7.00
Cc1ccc(-c2ccc(N)c(NC(=O)c3ccc(S(C)(=N)=O)cc3)c2)s1 (stereo not shown) [Compound 139, N-[2-amino-5-(5-methyl-2-thienyl)phenyl]-4-(methylsulfonimidoyl)benzamide] | < 5.70 | > 7.00
CS(=N)(=O)c1ccc(C(=O)Nc2cc(-c3ccc(C(F)(F)F)cc3)ccc2N)cc1 (stereo not shown) [Compound 142, N-[2-amino-5-[4-(trifluoromethyl)phenyl]phenyl]-4-(methylsulfonimidoyl)benzamide] | < 5.70 | 5.70 to 6.30
CS(=N)(=O)c1ccc(C(=O)Nc2cc(-c3ccc(F)c(F)c3)ccc2N)cc1 (stereo not shown) [Compound 147, N-[2-amino-5-(3,4-difluorophenyl)phenyl]-4-(methylsulfonimidoyl)benzamide] | < 5.70 | 6.30 to 7.00
CS(=N)(=O)c1ccc(C(=O)Nc2cc(-c3cncnc3)ccc2N)cc1 (stereo not shown) [Compound 151, N-(2-amino-5-pyrimidin-5-yl-phenyl)-4-(methylsulfonimidoyl)benzamide] | < 5.70 | < 5.70
CS(=N)(=O)c1ccc(C(=O)Nc2cc(C#CC3CC3)ccc2N)cc1 (stereo not shown) [Compound 155, N-[2-amino-5-(2-cyclopropylethynyl)phenyl]-4-(methylsulfonimidoyl)benzamide] | < 5.70 | < 5.70
Cc1ncc(-c2ccc(N)c(NC(=O)c3ccc(S(C)(=N)=O)cc3)c2)s1 (stereo not shown) [Compound 156, N-[2-amino-5-(2-methylthiazol-5-yl)phenyl]-4-(methylsulfonimidoyl)benzamide] | < 5.70 | 6.30 to 7.00
CS(=N)(=O)c1ccc(C(=O)Nc2cc(-c3cccnn3)ccc2N)cc1 (stereo not shown) [Compound 157, N-(2-amino-5-pyridazin-3-yl-phenyl)-4-(methylsulfonimidoyl)benzamide] | < 5.70 | > 7.00
CS(=N)(=O)c1ccc(C(=O)Nc2cc(-c3ncccn3)ccc2N)cc1 (stereo not shown) [Compound 158, N-(2-amino-5-pyrimidin-2-yl-phenyl)-4-(methylsulfonimidoyl)benzamide] | < 5.70 | 5.70 to 6.30
N=S(=O)(c1ccncc1)c1ccc(C(=O)Nc2cc(-c3ccc(F)cc3)ccc2N)cc1 (stereo not shown) [Compound 168, N-[2-amino-5-(4-fluorophenyl)phenyl]-4-(4-pyridylsulfonimidoyl)benzamide] | 5.70 to 6.30 | > 7.00
CCN=S(C)(=O)c1ccc(C(=O)Nc2cc(-c3ccc(F)cc3)ccc2N)cn1 (stereo not shown) [Compound 169, N-[2-amino-5-(4-fluorophenyl)phenyl]-6-(N-ethyl-S-methyl-sulfonimidoyl)pyridine-3-carboxamide] | 5.70 to 6.30 | > 7.00
CS(=N)(=O)Cc1ccc2oc(C(=O)Nc3cc(-c4ccc(F)cc4)ccc3N)cc2c1 (stereo not shown) [Compound 170, N-[2-amino-5-(4-fluorophenyl)phenyl]-5-[(methylsulfonimidoyl)methyl]benzofuran-2-carboxamide] | 5.70 to 6.30 | > 7.00

Next, values leading:

pIC50 (HDAC3/NCor2) | pIC50 (Recombinant HDAC1) | SMILES
5.70 to 6.30 | > 7.00 | CS(=N)(=O)c1ccc(C(=O)Nc2cc(-c3ccc(Cl)s3)ccc2N)cc1 (stereo not shown) [Compound 137, N-[2-amino-5-(5-chloro-2-thienyl)phenyl]-4-(methylsulfonimidoyl)benzamide]
5.70 to 6.30 | > 7.00 | CS(=N)(=O)c1ccc2sc(C(=O)Nc3cc(-c4cccs4)ccc3N)cc2c1 (stereo not shown) [Compound 138, N-[2-amino-5-(2-thienyl)phenyl]-5-(methylsulfonimidoyl)benzothiophene-2-carboxamide]
5.70 to 6.30 | > 7.00 | CS(=N)(=O)C1(c2ccc(C(=O)Nc3cc(-c4cccs4)ccc3N)cc2)CC1 (stereo not shown) [Compound 140, N-[2-amino-5-(2-thienyl)phenyl]-4-[1-(methylsulfonimidoyl)cyclopropyl]benzamide]
5.70 to 6.30 | > 7.00 | CCN=S(C)(=O)c1ccc(C(=O)Nc2cc(-c3cccs3)ccc2N)cc1 (stereo not shown) [Compound 141, N-[2-amino-5-(2-thienyl)phenyl]-4-(N-ethyl-S-methyl-sulfonimidoyl)benzamide]
5.70 to 6.30 | > 7.00 | CS(=N)(=O)c1ccc2oc(C(=O)Nc3cc(-c4cccs4)ccc3N)cc2c1 (stereo not shown) [Compound 143, N-[2-amino-5-(2-thienyl)phenyl]-5-(methylsulfonimidoyl)benzofuran-2-carboxamide]
5.70 to 6.30 | > 7.00 | C[S@@](=N)(=O)c1ccc(C(=O)Nc2cc(-c3ccc(F)s3)ccc2N)cc1 [Compound 144, (R)—N-[2-amino-5-(5-fluoro-2-thienyl)phenyl]-4-(methylsulfonimidoyl)benzamide]
5.70 to 6.30 | > 7.00 | CS(=N)(=O)c1ccc(C(=O)Nc2cc(-c3cncs3)ccc2N)cc1 (stereo not shown) [Compound 148, N-(2-amino-5-thiazol-5-yl-phenyl)-4-(methylsulfonimidoyl)benzamide]
5.70 to 6.30 | > 7.00 | C[S@](=N)(=O)c1ccc(C(=O)Nc2cc(-c3ccc(F)s3)ccc2N)cc1 [Compound 149, (S)—N-[2-amino-5-(5-fluoro-2-thienyl)phenyl]-4-(methylsulfonimidoyl)benzamide]
5.70 to 6.30 | > 7.00 | N=S(=O)(c1ccc(C(=O)Nc2cc(-c3cccs3)ccc2N)cc1)c1ccccn1 (stereo not shown) [Compound 150, N-[2-amino-5-(2-thienyl)phenyl]-4-(2-pyridylsulfonimidoyl)benzamide]
6.30 to 7.00 | > 7.00 | CS(=N)(=O)c1ccc(C(=O)Nc2cc(-c3ccc(F)s3)ccc2N)nn1 (stereo not shown) [Compound 152, N-[2-amino-5-(5-fluoro-2-thienyl)phenyl]-6-(methylsulfonimidoyl)pyridazine-3-carboxamide]
5.70 to 6.30 | > 7.00 | CS(=O)(=NC#N)c1ccc(C(=O)Nc2cc(-c3cccs3)ccc2N)cc1 (stereo not shown) [Compound 153, N-[2-amino-5-(2-thienyl)phenyl]-4-(N-cyano-S-methyl-sulfonimidoyl)benzamide]
6.30 to 7.00 | > 7.00 | CS(=N)(=O)c1ccc(C(=O)Nc2cc(-c3ccc(F)cc3)ccc2N)nn1 (stereo not shown) [Compound 159, N-[2-amino-5-(4-fluorophenyl)phenyl]-6-(methylsulfonimidoyl)pyridazine-3-carboxamide]
6.30 to 7.00 | > 7.00 | CS(=N)(=O)c1ccc(C(=O)Nc2cc(-c3ccc(F)cc3)ccc2N)s1 (stereo not shown) [Compound 161, N-[2-amino-5-(4-fluorophenyl)phenyl]-5-(methylsulfonimidoyl)thiophene-2-carboxamide]
5.70 to 6.30 | > 7.00 | CS(=N)(=O)Cc1ccc(C(=O)Nc2cc(-c3ccc(F)cc3)ccc2N)cc1 (stereo not shown) [Compound 162, N-[2-amino-5-(4-fluorophenyl)phenyl]-4-[(methylsulfonimidoyl)methyl]benzamide]
6.30 to 7.00 | > 7.00 | CS(=O)(=NC1CC1)c1ccc(C(=O)Nc2cc(-c3ccc(F)cc3)ccc2N)cc1 (stereo not shown) [Compound 163, N-[2-amino-5-(4-fluorophenyl)phenyl]-4-(N-cyclopropyl-S-methyl-sulfonimidoyl)benzamide]
5.70 to 6.30 | 6.30 to 7.00 | CS(=N)(=O)c1ncc(C(=O)Nc2cc(-c3ccc(F)cc3)ccc2N)s1 (stereo not shown) [Compound 164, N-[2-amino-5-(4-fluorophenyl)phenyl]-2-(methylsulfonimidoyl)thiazole-5-carboxamide]
5.70 to 6.30 | > 7.00 | CCN=S(C)(=O)c1ccc(C(=O)Nc2cc(-c3ccc(F)cc3)ccc2N)cc1 (stereo not shown) [Compound 165, N-[2-amino-5-(4-fluorophenyl)phenyl]-4-(N-ethyl-S-methyl-sulfonimidoyl)benzamide]
5.70 to 6.30 | > 7.00 | N=S(=O)(c1ccc(C(=O)Nc2cc(-c3ccc(F)cc3)ccc2N)cc1)c1ccccn1 (stereo not shown) [Compound 166, N-[2-amino-5-(4-fluorophenyl)phenyl]-4-(2-pyridylsulfonimidoyl)benzamide]
5.70 to 6.30 | > 7.00 | CS(=N)(=O)Cc1ccc2sc(C(=O)Nc3cc(-c4ccc(F)cc4)ccc3N)cc2c1 (stereo not shown) [Compound 167, N-[2-amino-5-(4-fluorophenyl)phenyl]-5-[(methylsulfonimidoyl)methyl]benzothiophene-2-carboxamide]
